The values that follow come from patent US20200016133A1, “PREVENTION AND TREATMENT OF THROMBOSIS IN MEDICALLY ILL PATIENTS” (Portola Pharmaceuticals, Inc., priority 2011, published 2020).

The data set is described as follows: effect of co-administered P-glycoprotein (Pgp) inhibitor on betrixaban exposure. Conditions: with concomitant Pgp inhibitor. The class given is in vivo. On the procedure: In some embodiments, a P-glycoprotein (Pgp) inhibitor is concomitantly administered to the patient. […] In one aspect, when used together with a Pgp inhibitor, betrixaban is administered at about 40 mg, or alternatively about 35 mg, or 30, or 25, or 20, or 15, or 10 mg daily. The same amount is applicable to patients who experience kidney insufficiency.

Each structure is given as a SMILES string.

Consider `COc1ccc(NC(=O)c2ccc(C(=N)N(C)C)cc2)c(C(=O)Nc2ccc(Cl)cn2)c1` [betrixaban, [2-({4-[(dimethylamino)iminomethyl]phenyl}carbonylamino)-5-methoxyphenyl]-N-(5-chloro(2-pyridyl))carboxamide], for which the exposure of betrixaban result is “increases the exposure”.
